Measurements: patent US20080206447A1, “ORGANIC-ELECTROLUMINESCENCE-MATERIAL-CONTAINING SOLUTION, METHOD FOR FORMING ORGANIC ELECTROLUMINESCENCE THIN FILM AND ORGANIC ELECTROLUMINESCENCE DEVICE” (Idemitsu Kosan Co., Ltd., priority 2007, published 2008)

Key:
Assay type in all cases: physicochemical
Viscosity of the solvent = conditions: neat solvent, 22 degrees C
Procedure: 100 mg of a compound A represented by the following formula was put into a sample bottle, and a solvent was dropped thereinto while stirring until the compound A was completely dissolved. The solubility of the compound A in the solvent was calculated from an amount of the dropped solvent. The viscosity of the solvent was measured at the temperature of 22 degrees C.

[1] = Solubility in 4-isopropylbiphenyl at 0.5 wt % by visual check; set-up: key to Solubility: A: solution that contained no insoluble element; B: solution that contained insoluble element(s); conditions: for Solubility: added to 4-isopropylbiphenyl at 0.5 wt %, visual check; for Solubility in 4-isopropylbiphenyl (in words): 0.5 wt %
Text: The results are shown in Table 2, where solution that contained no insoluble element is rated as “A” while solution that contained insoluble element(s) is rated as “B”.

[2] = Solvent solubility of para-substituted naphthacene compound; conditions: solvent not stated

Compound	Solubility [1]	Viscosity (Viscosity of the solvent)	further results
CC(C)(C)c1ccccc1 [t-butylbenzene]	–	1.2 cP	–
Cc1ccc(Cc2ccc(C)c(C)c2)cc1C [1,1-bis(3,4-dimethylphenyl)methane]	–	33.6 cP	–
c1cc(-c2ccc3ccccc3c2)cc(-c2c3ccccc3c(-c3ccc4cc(-c5ccc6ccccc6c5)ccc4c3)c3ccccc23)c1 [Compound G]	B	–	Solubility in 4-isopropylbiphenyl (in words) [1]: low solubility
CC(C)c1ccc(-c2ccccc2)cc1 [4-isopropylbiphenyl]	–	6.9 cP	–
CCc1cccc(-c2ccccc2)c1 [3-ethylbiphenyl]	–	5.6 cP	–
Cc1cc(C)cc(C)c1 [mesitylene]	–	0.76 cP	–
Cc1ccccc1 [toluene]	–	0.65 cP	–
c1ccc(-c2ccc(-c3c4ccccc4c(-c4ccc(-c5ccccc5)cc4-c4ccccc4)c4cc5ccccc5cc34)c(-c3ccccc3)c2)cc1 [drawing 5]	–	–	Solubility [2]: ≤ 0.1 wt %
c1ccc(C2CCCCC2)cc1 [cyclohexyl benzene]	–	2.6 cP	–
CCC(C)c1ccccc1 (centres unmarked) [s-butylbenzene]	–	1.0 cP	–
xylene	–	0.76 cP	–
CCCCCCCCCCCCc1ccccc1 [dodecylbenzene]	–	4.5 cP	–
c1ccc2c(c1)CCCC2 [tetralin]	–	2.3 cP	–

The next lines start with results.

Solubility [1]	Compound	Viscosity (Viscosity of the solvent)	further results
A	c1ccc(-c2cc(-c3ccc4ccccc4c3)cc(-c3c4ccccc4c(-c4ccc5ccccc5c4)c4ccccc34)c2)cc1 [Compound E]	–	–
B	c1cc(-c2ccc3ccccc3c2)cc(-c2c3ccccc3c(-c3cccc4ccccc34)c3ccccc23)c1 [Compound F]	–	Solubility in 4-isopropylbiphenyl (in words) [1]: low solubility
B	c1ccc(-c2c3ccccc3c(-c3cccc(-c4cccc(-c5c6ccccc6c(-c6ccccc6)c6ccccc56)c4)c3)c3ccccc23)cc1 [Compound I]	–	Solubility in 4-isopropylbiphenyl (in words) [1]: low solubility
B	c1ccc(-c2ccc(-c3c4ccccc4c(-c4ccccc4)c4ccccc34)cc2)cc1 [Compound H]	–	Solubility in 4-isopropylbiphenyl (in words) [1]: low solubility
A	c1cc(-c2ccc(-c3ccc4ccccc4c3)cc2)cc(-c2c3ccccc3c(-c3ccc(-c4cccc5ccccc45)cc3)c3ccccc23)c1 [Compound B]	–	–
A	c1ccc(-c2ccc(-c3ccccc3)c(-c3ccc(-c4cc(-c5ccccc5)ccc4-c4ccccc4)c4cc5cc6ccccc6cc5cc34)c2)cc1 [Compound J]	–	–
A	c1ccc2cc(-c3ccc4cc(-c5c6ccccc6c(-c6ccc(-c7cccc8ccccc78)cc6)c6ccccc56)ccc4c3)ccc2c1 [Compound D]	–	–
B	c1ccc(-c2ccc(-c3c4ccccc4c(-c4ccc(-c5ccccc5)cc4)c4cc5ccccc5cc34)cc2)cc1 [Compound M]	–	Solubility in 4-isopropylbiphenyl (in words) [1]: low solubility
A	c1ccc2cc(-c3ccc(-c4c5ccccc5c(-c5ccc(-c6cccc7ccccc67)cc5)c5ccccc45)cc3)ccc2c1 [Compound C]	–	–
B	c1ccc(-c2c3ccccc3c(-c3ccccc3)c3c(-c4ccccc4)c4ccccc4c(-c4ccccc4)c23)cc1 [Compound N]	–	Solubility in 4-isopropylbiphenyl (in words) [1]: lower solubility than the compounds J, K
A	c1ccc(-c2cc(-c3ccccc3)c(-c3c4ccccc4c(-c4ccccc4)c4cc5ccccc5cc34)c(-c3ccccc3)c2)cc1 [Compound K]	–	–
B	c1ccc(-c2ccc(-c3c4ccccc4c(-c4ccc(-c5ccccc5)cc4-c4ccccc4)c4cc5ccccc5cc34)c(-c3ccccc3)c2)cc1 [Compound L]	–	Solubility in 4-isopropylbiphenyl (in words) [1]: low solubility
